Consider 16 compounds from PMC2034157, “CRC/EORTC/NCI Joint Formulation Working Party: experiences in the formulation of investigational cytotoxic drugs” (British Journal of Cancer, 1995).

Converted amounts (≈) assume the structure as drawn. Like-named read-outs stand apart in the source and are kept apart here. Bounds are passed on as bounds.

Series [1] in a line: Phase I/II clinical trials: toxicity. It is filed as in vivo, human. The following applies: phase I trial. From the text:
(§1) Brsh Jowbnl d Cancer ( ) 72, 210-218 ? […] Figwe 3 Chemical stnruu of disulphonated aluminium phthalocyamne.

The subject of another series is DNA polymerase-alpha. Further details: method as in Bucknall et al., 1973; Taguchi et al., 1978. The following applies: ref Bucknall et al., 1973; Taguchi et al., 1978; cited from earlier work.
The test system of the next series is colon 26. Description: Anti-tumour activity against colon 26 tumour. The format is in vivo.
From the text: as §1

A short description of series [2]: physchem.
A further series concerns B16 melanoma. Description: Anti-tumour activity against B16 melanoma. It is filed as in vivo.
From the text: as §1

The subject of the next series is NCI-H82. Further details: method as in Waud et al., 1992. The conditions noted are these: xenograft in athymic mice; ref Waud et al., 1992; cited from earlier work.
The nature of series [3]: Solution stability / decomposition studies. From the text: (§2) Figwe 3 Chemical stnruu of disulphonated aluminium phthalocyamne.
The nature of series [4]: Stability of formulated product (shelf-life, reconstituted solution). The following applies: for pH of reconstituted solution: lyophilised product reconstituted with water.
From the text: as §1

For a further series, the system named is LOX amelanotic melanoma. Further details: method as in Waud et al., 1992. The conditions noted are these: xenograft in athymic mice; ref Waud et al., 1992; cited from earlier work.
Another series deals with MX-1 mammary carcinoma. Also on record: method as in Waud et al., 1992. The following applies: xenograft in athymic mice; ref Waud et al., 1992; cited from earlier work.
Series [5] is described as follows: Preclinical toxicology studies.
From the text: as §2

A short description of another series: Aqueous solubility. The conditions noted are these: for aqueous solubility (in words): water / aqueous solution.
Series [6] is described as follows: physchem.
From the text: as §1
This is another data set of the same source.

The conditions of series [7]: cited from earlier work; for maximum tolerated dose (MTD): ref Judson et al., 1989.
Details of series [8]: method as in de Vries et al., 1993. The following applies: aqueous solution; ref de Vries et al., 1993; cited from earlier work.
Details of series [9]: method as in Torres-Labandeira et al., 1991. The following applies: 40% aqueous solution of HPCD; ref Torres-Labandeira et al., 1991; cited from earlier work.
Series [10] in a line: Clinical pharmacokinetics in phase I trial. It is filed as in vivo, human.
From the text: as §1

The nature of another series: Murine anti-tumour tests. It is filed as in vivo.
From the text: as §1

Another series concerns gliomas. Also on record: method as in Stevens and Newlands, 1993. The following applies: daily for five consecutive days; ref Stevens and Newlands, 1993; cited from earlier work.
In another series the test system is P388 leukaemia. Description: Anti-tumour activity against P388 leukaemia. The format is in vivo.
From the text: as §1

A further series relates to L1210 leukaemia. The series is described as follows: Anti-tumour activity against L1210 leukaemia. The format is in vivo.
From the text: as §1

The conditions of series [11]: 50% aqueous PEG 3400, 30 mg ml-1, not further diluted; ref Gibson et al. (1990); cited from earlier work.
The conditions of series [12]: phase I studies; ref Sessa et al., 1991; cited from earlier work.
For series [13] the following is noted: data from the drug's discoverers; ref Pettit et al., 1982; cited from earlier work.
The nature of series [14]: Compatibility and adsorption studies with administration sets. It is filed as physicochemical.
From the text: as §1

Series [15] can be described thus: In vivo anti-tumour activity.
From the text: as §1

Series [16] relates to acid or alkaline phosphatase. Description: Incubation of prodrug with phosphatase. The format is biochemical. The following applies: incubated with acid or alkaline phosphatase.
From the text: as §1

On to `COc1ccc(O)cc1` [4-Hydroxyanisole], for which the toxicity observed entry in series [1] (intravenous, ethanol vehicle) is “Hepatotoxicity was observed”.

As for `C[C@@]1(CO)[C@H](O)CC[C@@]2(C)[C@H]1CC[C@H]1C[C@@H]3C[C@@]12CC[C@]3(O)CO` [Aphidicolin, reference compound], the “effect on DNA polymerase” value in the series on DNA polymerase-alpha is listed as “inhibit”. Besides, the anti-tumour activity result in the series on colon 26 and with B16 melanoma was “observed” in each case. For the same compound, in “physchem [2]”, the solubility (commonly the concentration that dissolves in the medium under given conditions) was about 250 µg/mL (≈ 0.739 mM).

For the compound `CNC(=O)OCc1nc(SC)n(C)c1COC(=O)NC.Cl` [Carmethizole hydrochloride, carmethizole hydrochloride], the anti-tumour activity result with NCI-H82, with LOX amelanotic melanoma and in the series on MX-1 mammary carcinoma was “active” throughout. For the same compound, the “pH of maximal stability” value in [3] (about pH 1 or lower) was about 1. In addition, the “teA (time to 10% decomposition)” value in series [4] (freeze-dried product reconstituted with water for injection, solution pH 2.8) is reported as about 5.4 h. In addition, in series [4], the “pH of reconstituted solution” value worked out at 2.8. The toxicity observed result in series [5] (preclinical toxicology studies) was “signifiant cardiotoxicity”. Also, the “solubility of the hydrochloride salt” value in “Aqueous solubility” (hydrochloride salt) was “greater than 500 mg ml- 1”.

`CCN(CC)c1ccc2cc(C(=O)Nc3ccc4[nH]c(C(=O)N5C[C@@H](CCl)c6c5cc(OC(=O)Nc5ccccc5)c5[nH]cc(C)c65)cc4c3)oc2c1` [Carzelesin]: the “time drug is stable in PET vehicle” value in [4] (stored at -30C, PEG 400/polysorbate 80/ethanol) is given as “at least 1 year”. The “solubility in common pharmaceutically acceptable solvents” value in “physchem [6]” was “very low”.

In the case of `ClCC[N+]12CC[N+](CCCl)(CC1)C2.O=C([O-])/C=C\C(=O)O.O=C([O-])/C=C\C(=O)O` [Dabis maleate, 1,4-bis (2'-chloroethyl)-1,4-diazabicyclo-[2.2.1] heptane dimaleate], the “recommended phase II dose” value in [7] (6 h infusion for 6 weeks followed by 3 week drug vacation, ref Verweij et al., 1992) is 500 mg m2 week-'. Moreover, in [7] (once every 3 weeks, ref van der Burg et al., 1991), the “recommended dose for phase II trials” value is given as 750 mg m-2. Also, in [7] (phase I, once every 3 weeks, ref van der Burg et al., 1991), the dose-limiting toxicity entry is “neurotoxicity”. Also, in series [7] (prolonged infusion, ref Verweij et al., 1992), the “toxicity of prolonged infusion” value was “neurotoxicity consisting of parasthesia and ataxia”.

For the compound `Cn1c(/C=C/CO)c(CO)c2c1C(=O)C=C(N1CC1)C2=O` [E.O.9], the “time reconstituted solution is stable” value in series [4] (0.5 mg ml-1 in 0.9% sodium chloride, room temperature) was “at least 24 h”. Moreover, the solubility in “physchem [2]” lay within 200 to 500 µg/mL (≈ 0.694 to 1.73 mM). Also, the “aqueous solubility (in words)” value in “Aqueous solubility” is on record as “lmited”. In [8], the “pH of maximum stability” value is reported as “around 9.5”.

Take `NC(=O)c1ncn2c(=O)n(CCCl)nnc12` [Mitozolomide, mitozolomide, reference compound]: in [7] (phase I and phase II clinical trials), the “toxicity for which trials were terminated” value is recorded as “unpredictable throm- bocYtopenia”.

Take `O=C1N[C@H]2[C@H](O)[C@H](O)[C@@H](O)[C@H](O)[C@@H]2c2cc3c(c(O)c21)OCO3` [Pancratistatin]: in series [4], the “pH of reconstituted solution” value stood at 6.3. In addition, the solubility in “physchem [6]” (aqueous solubilisation with complexing agent) is 1000 µg/mL (≈ 3.07 mM); in the series “physchem [6]” (solubility in a range of solvents) it was under 400 µg/mL. In addition, the “solubility in hydroxypropyl-beta-cyclodextrin solution” value in series [9] is on record as “approximately 1.2 mg ml-'”.

As to `CO[C@@H](/C(C)=C/C=C/C(C)=C/c1coc(C)n1)[C@@H](C)[C@@H]1C[C@H](O)[C@@]2(C)O[C@@H]2/C=C/[C@@H](C)[C@H]2C[C@H](CC(=O)O2)C[C@@H]2O[C@H]2C(=O)O1` [Rhizoxin], the “increase in degradation in presence of light vs protected from light” value in series [3] (pH 5.6) is “approximately 2 -fold”. In the series “physchem [6]” (t-butanol, t-butanol-water), the “solubility in t-butanol and t-butanol-water mixtures” value is on record as “excellent”. The compound further came in with a solubility in “physchem [2]” of 12 µg/mL (≈ 0.0192 mM).

As for `CCCCCCCCCCCCCCCCCCOCC1(COP(=O)([O-])OCC[N+](C)(C)C)CCCO1` (stereo not shown) [SRI 62-834], in series [4] (Intralipid formulation), the “time formulation is chemically and physically stable” value stood at 3 months. The “local tolerance of simple aqueous formulations” value in series [5] (simple aqueous formulations) is on record as “irritation at the site of injection”. Also, the “solubility in aqueous systems” value in “Aqueous solubility” (at 20C) is 50 % (w/ v).

`CS(=O)(=O)OCCN(CCCl)c1ccc(C(=O)N[C@@H](CCC(=O)O)C(=O)O)cc1` [Springer prodrug]: the “time until degradation apparent” value in [4] (lyophilised material at 20-25C) is given as at most 2 weeks. Moreover, the “time lyophilised material is stable” value in [4] (stored at 4C) is “up to 1 year”.

Consider `Cn1nnc2c(C(N)=O)ncn2c1=O` [Temozolomide], for which the bioavailability (commonly dose-corrected exposure relative to a reference, in per cent) in series [10] (human, in vivo, patients, 200 mg m2, oral vs i.v., read-out: bioavailability of oral formulation) is about 100%. Further, in series [10] (oral formulation, dose escalations), the “dose dependency in the pharmacokinetics” value is reported as “no evidence of dose dependency”. In [10] (patients, oral), the “absorption of oral formulation” value is recorded as “rapid”. Besides, the “potency relative to mitozolomide” value in “Murine anti-tumour tests” is given as “less potent”. Besides, the activity against gliomas result with gliomas was “evident”. Besides, the “solubility in DMSO relative to mitozolomide” value in the series “physchem [6]” (DMSO) is “less soluble”. In addition, the “toxicity relative to mitozolomide” value in series [5] (in vivo) was “ess toxi”.

Regarding `CN(CO)c1nc(N(C)CO)nc(N(C)CO)n1` [Trimelamol, N2,N4,N6-trihydroxymethyl-N2,N4,N6-trimethylmelamine], the “maximum tolerated dose (MTD)” value is given as 2400 mgm-2 in series [7] (single administration) and 1000 mg m2 in series [7] (thrice-daily schedule). In [3] (HPLC, 25C, pH 3-12.5), the “pH of maximum stability” value is 10-11. For the same compound, the half-life (as a rule, the time in which the quantity being followed falls by half) in [3] (buffer, pH 10) was over 30 h. Further, the anti-tumour activity result in the series on colon 26, in the series with P388 leukaemia, in the series on B16 melanoma and in the series on L1210 leukaemia was “active” throughout. Also, the solubility is about 45000 µg/mL (≈ 174 mM) in the series “physchem [6]” (95% ethanol), about 375000 µg/mL (≈ 1450 mM) in “physchem [6]” (DMA), about 15000 µg/mL (≈ 58.1 mM) in “physchem [6]” (propylene glycol) and 10000 µg/mL (≈ 38.7 mM) in the series “physchem [2]” (water). In addition, the “t/2 of reconstituted freeze-dried formulation” value in series [11] is 46.3 h.

Take `C[C@@]1(CO)[C@H](O)CC[C@@]2(C)[C@H]1CC[C@H]1C[C@@H]3C[C@@]12CC[C@]3(O)COC(=O)CN.Cl` [aphidicolin glycinate]: the “dose at which toxicity was dose limiting” value is given as 2250 mg m-2 in series [7] (1 h infusion for five consecutive days every 3 weeks, ref Sessa et al., 1991) and 4500 mg m-2 in [7] (24 h infusion every 3 weeks, ref Sessa et al., 1991). Besides, the dose-limiting toxicity entry in series [7] (both phase I studies, ref Sessa et al., 1991) was “Local toxicity”. In addition, the “pH of maximal stability” value in series [3] (pH 2.0-9.0 at 40-C) was 4.5. Also, in [4] (1 mg ml-1 in 5% dextrose or 0.9% sodium chloride injection, HPLC), the “time diluted solution is stable” value is listed as “more than 24 h”. Further, in [4] (100 mg ml-1 in water for injection), the “time reconstituted solution is stable” value is given as “at least 24 h”. The anti-tumour activity entry with P388 leukaemia and in the series with B16 melanoma was “active” in each case. Besides, in series [12], the pharmacologically active levels is “had not been achieved”. The “solubility of hydrochloride salt of the glycine amino group” value in the series “Aqueous solubility” (hydrochloride salt) is given as “greater than 100 mgnml'”.

Regarding `CCC/C=C/C=C/C(=O)O[C@H]1/C(=C/C(=O)OC)C[C@H]2C[C@H]([C@@H](C)O)OC(=O)C[C@H](O)C[C@@H]3C[C@H](OC(C)=O)C(C)(C)[C@](O)(C[C@@H]4C/C(=C/C(=O)OC)C[C@H](/C=C/C(C)(C)[C@]1(O)O2)O4)O3` [bryostatin 1], the “aqueous solubility (in words)” value in series [13] is “lmited”. In addition, the “percentage of ethanol below which the drug precipitated” value in the series “physchem [6]” (ethanolic solutions at predicted formulation concentrations) was “below 50%”. In addition, in series [1] (ethanol solution), the “local toxicity thought to be associated with high ethanol concentration” value is recorded as “phlebitis”. The major toxicity result in [1] (with or without in-line dilution) is given as “general myalgia”. Moreover, the “adsorption onto administration set surfaces” value in [14] (PTFE-lined sets, ethanol concentration below 50%) was “significant”; in series [14] (plastic not PTFE-lined (e.g. PVC)), “exten- sive adsorption”.

As for `COc1ccc(/C=C\c2cc(OC)c(OC)c(OC)c2)cc1OP(=O)(O)O` [phosphate ester], the “stability in aqueous solutions (in words)” value in [3] (aqueous solutions) is “adequate”. Moreover, the in vivo activity result in series [15] is “inactive”. For the same compound, in series [16], the “release of parent molecule” value is “released the parent mokcule”. The “aqueous solubility (in words)” value in “Aqueous solubility” was “adequate”.
